Consider `CONC(=O)Nc1ccc(-c2sc3c(c2CNC(C)c2ccccc2)c(=O)n(-c2ccc(F)cn2)c(=O)n3Cc2c(F)cccc2F)cc1` (stereo not drawn), for which the melting point (as a rule, the temperature, or range, at which the solid turns liquid) lay within 128 to 130 °C.

In turn, `O=C(Nc1ccc2ccc(Cl)nc2n1)c1cnccn1` gave a melting point of 308 °C.

Compound `NC(=O)C1(Nc2ccccc2)CCN(C2CCC(c3ccc(F)cc3)(c3ccc(F)cc3)CC2)CC1` showed a melting point of 224 to 227 °C.

On to `CC(C)(C)OC(=O)[C@@H]1CCCN2C(=O)CC[C@H](NS(C)(=O)=O)C(=O)N12`, for which the melting point lay in the range of 68 to 70 °C.

The compound `COc1ccccc1-n1cc(-c2ccccc2)c(OCC(=O)O)n1` came in with a melting point of 170 to 174 °C.

On to `COCCNc1cc(Cl)cc(NCCOC)c1[N+](=O)[O-]`, for which the melting point came out at 90 °C.

In turn, `COc1ccc(C(=O)Cc2ccc3ccccc3c2)cc1` gave a melting point of 132 to 134 °C.

As to `O=C(Nc1ccc(Cl)cn1)c1cn2nc(N3CCN(C(=O)c4ccccc4C(F)(F)F)CC3)ccc2n1`, the melting point is 265 to 268 °C.

As to `CC(C)c1cc(S(=O)(=O)c2c(Br)cc(CC(=O)O)cc2Br)ccc1O`, the melting point is 171 to 172 °C.

Compound `CC(C)c1cn2ccccc2c1S(=O)(=O)c1ccc(OCC2CO2)cc1` (stereo not drawn) registered a melting point of 110 to 111 °C.

The compound `CC(C)(C)n1cc(-c2ccc(I)cc2)c(C#N)c1N` gave a melting point of 166 to 167 °C.

In the case of `CCCCCCCNC(=O)CCCCO`, the melting point fell in the range of 53 to 54 °C.

`Cc1[nH]cnc1CCNC(=NCCSCc1nc[nH]c1C)NC#N` showed a melting point of 190 to 191 °C.

`CCCCCCCCCCCCCCCCc1ccccc1O`: the melting point was 54 to 55 °C.

`Cc1ccc(C(=O)c2cc(CN(C)CCO)c(O)c(C(C)(C)C)c2)cc1` showed a melting point of 131 to 132 °C.

`CN(c1cccc2cc(C3=NCC(CC(=O)N4CCOCC4)S3)[nH]c12)S(=O)(=O)c1cccs1` (stereo not drawn) returned a melting point of 173 to 174 °C.

In the case of `Nc1nc2ccc(OC(F)(F)C(F)(F)F)cc2s1`, the melting point came out at 156 °C.

Regarding `O=C(NC(=NCCCc1c[nH]cn1)NCC(O)COc1ccccc1)c1ccccc1` (stereo not drawn), the melting point came out at 129 °C.

`C=CCOc1ccc(Nc2nccc(-c3cccnc3)n2)cc1` showed a melting point of 105 to 108 °C.

For the compound `O=[N+]([O-])C=C1NCCN1Cc1ccc(Cl)nc1`, the melting point is 160 to 161 °C.

`CC(=O)NC1Cc2cc(CCN3CCN(c4nsc5ccccc45)CC3)ccc2C1(C)C` (stereo not drawn) returned a melting point of 58 to 68 °C.

In the case of `BrC(Br)(Br)c1ccc2cc(I)ccc2n1`, the melting point is 124 to 126 °C.

Compound `O=C(O)c1nc2ccc(Oc3ccccc3)cc2cc1OCc1ccccc1` yielded a melting point of 281 to 283 °C.

`NCCCNc1ccc(NCCCN)c2c1C(=O)c1c(O)ccc(O)c1C2=O` came in with a melting point of 115 to 130 °C.

`COc1cc(C(=O)/C=C/c2c(-c3ccc(F)cc3)nc3sccn23)cc(OC)c1OC` displayed a melting point of 222 to 225 °C.

Compound `O=C1NC(CCO)CO1` (stereo not drawn) had a melting point of 90 to 91 °C.

`COC(=O)c1ccccc1Sc1cc(C=O)ccc1OC` gave a melting point of 99 to 104 °C.

Compound `COc1cc(Nc2nccc(-c3ccc(N4CCNC(CO)C4)nc3)n2)cc(OC)c1OC` (stereo not drawn) yielded a melting point of 118 to 119 °C.

The compound `COc1cc2c(-c3ccncc3)c(C(=O)O)oc(=O)c2cc1OC` returned a melting point of more than 250 °C.

`O=C1C(=O)c2ccccc2C2=C1SCC1(CCN(Cc3c(F)cccc3Cl)CC1)O2` showed a melting point of 90 to 92 °C.

Regarding `CS(=O)(=O)c1ccc(-c2cnn(-c3ccc(F)c(F)c3)c(=O)c2Cc2ccc(F)c(F)c2)cc1`, the melting point is 177 to 179 °C.

In turn, `CCC(=CC(CSc1nnnn1C)=NO)C(C)[N+](=O)[O-]` (stereo not drawn) showed a melting point of 83 to 84 °C.

Regarding `O=S(=O)(NCC1CCN(C[C@H]2COc3ccc(Cl)cc3O2)CC1)c1c(F)cccc1F`, the melting point was 122 to 124 °C.

The compound `Cc1cc(C=O)c(C)c(Br)c1C` showed a melting point of 108 to 110 °C.

With `CON(C)C(=O)Nc1c(C(=O)c2cccc(Cl)c2)[nH]c2cc(Cl)ccc12`, the melting point was 167 to 169 °C.

In the case of `O=C(O)C1=Cc2cc(Cl)ccc2NC1C(F)(F)F` (stereo not drawn), the melting point fell in the range of 133 to 134 °C.

Compound `CCCCCCCCCCCCCS(=O)c1nc(NC(=O)Nc2c(C(C)C)cccc2C(C)C)n[nH]1` (stereo not drawn) registered a melting point of 178 to 181 °C.

Compound `CN(O)C(=O)c1ccc(CCCCc2ccccc2)cc1` came in with a melting point of 62 to 63.5 °C.

With `COC(=O)c1cc(-c2ccc(C)cc2)n(Cc2ccc(Cl)c(Cl)c2)n1`, the melting point turned out to be 98.6 °C.

Consider `Cn1cc(-c2ccccc2)c(=O)c(-c2cccc(O)c2)c1`, for which the melting point was in the range of 223 to 225 °C.

In turn, `COc1nc2c(C)cc(C)cc2c(-c2ccccc2Cl)c1NC(=O)Nc1cccc(C(F)(F)F)c1` gave a melting point of 151 to 153 °C.

`CP(C)(=O)COC(=O)c1cncn1C(c1ccccc1)c1ccccc1` gave a melting point of 174 °C.

`Brc1coc(-c2cn([C@H]3CN4CCC3CC4)nn2)c1` showed a melting point of 129 °C.

Turning to `FC(F)Oc1ccc2nc(NC3=NCC4(CN5CCC4CC5)O3)sc2c1` (stereo not drawn), the melting point was in the range of 223 to 225 °C.

On to `CNN1c2c(cc(Oc3ccc(F)cc3F)c(=O)n2NC)C=NC1S(=O)Cc1ccccc1` (stereo not drawn), for which the melting point was in the range of 80.5 to 89.9 °C.

Take `CC(NC(=O)c1cccc(C2(C)C(=O)Nc3cc(Cl)cc(Cl)c3C2=O)c1)c1ccccc1` (stereo not drawn): the melting point was 91 to 94 °C.

`N#Cc1c2c(nn1-c1ccc(Cl)cc1F)CCCC2` yielded a melting point of 83 to 84 °C.

As to `Cc1nc(O)c2c(n1)CCN(c1nc(C)nc(O)c1[N+](=O)[O-])CC2`, the melting point is more than 200 °C.

Consider `CCCCCc1cnc(-c2ccc(-c3ccc(C#N)cc3)cc2)nc1`, for which the melting point was 124 °C.

`Cn1nc2c3c(c(Cl)ccc31)C(=O)c1cnccc1-2`: the melting point lay within 244 to 245 °C.

Turning to `CC(C)(C)[Si](C)(C)OC1CCCc2cnc3cc(OCc4ccccc4)ccc3c21` (stereo not drawn), the melting point lay within 123 to 125 °C.

The compound `Cc1ccc(-c2c(NS(=O)(=O)c3cccc4ccccc34)ncnc2OCCOc2ncc(Br)cn2)cc1` yielded a melting point of 204 °C.

`COC(=O)C(C)(C)NC(=O)c1cc2c(n(CC3CCCCC3)c1=O)CCCCCC2` registered a melting point of 260 to 263 °C.

For `CCC1(C)CC(NC(=O)c2ccccc2)C(C)C(C)(CC)N1Cc1ccccc1` (stereo not drawn), the melting point lay within 173 to 176 °C.

Consider `CCc1cnc(N2CCN(C(=O)OC(C)(C)C)CC2)nc1`, for which the melting point fell in the range of 67 to 68 °C.

`CC(C=CC=C(C)C=CC1C(C)=CC(=O)CC1(C)C)=CC=CC=C(C)C=CC=C(C)C=CC1C(C)=CC(=O)CC1(C)C` (stereo not drawn) yielded a melting point of 185 to 187 °C.

For `CCNc1nc(N)nc2c1ncn2C1CC(N=[N+]=[N-])C(CO)O1` (stereo not drawn), the melting point lay within 199 to 201 °C.

On to `O=[N+]([O-])c1cc(Cl)cc2c1OC[C@H](CO)O2`, for which the melting point was 83 to 88 °C.

Compound `Cc1nc(C)c2c(n1)N(Cc1ccc(-c3ccccc3-c3nnn[nH]3)cc1)C(=O)C(O)C2` (stereo not drawn) returned a melting point of 154 to 156 °C.

`CCOC(=O)c1c(C(Cl)Cl)nc2c(C(F)(F)F)cccc2c1O`: the melting point turned out to be 88 °C.

Compound `C=C1CSc2sccc2C1=O` yielded a melting point of 64 to 65 °C.

`Cc1nc(C(N)=O)c2n1-c1ccc(Cl)cc1C(c1ccccc1)=NC2`: the melting point is 335 to 340 °C.

In turn, `COc1ccc(CS[C@@H]2CN[C@H](C(N)=O)C2)cc1` displayed a melting point of 120 to 121 °C.

`CCCCCNC(=O)N(C)c1cccc(-c2ccc(C=C(OC)C(=O)O)cc2OCCCC)c1` returned a melting point of 61 °C.

Regarding `CC(C)Oc1cc(CCCOc2cc(CCC(=O)O)n(-c3ccccc3)n2)n(Cc2ccc(Cl)cc2Cl)n1`, the melting point lay in the range of 146 to 148 °C.

For `COC(=O)c1ccc(CN(C2CCCCC2O)S(=O)(=O)c2ccc(Cl)cc2)c(F)c1F` (stereo not drawn), the melting point fell in the range of 123 to 125 °C.

Turning to `CCOC(=O)c1ccc(S(=O)(=O)C(C)(C)C)cc1Cl`, the melting point is 82.4 to 83 °C.

Regarding `Cc1ccc(-c2nc(CCl)co2)o1`, the melting point was in the range of 93 to 94 °C.

On to `CCOC(=O)C(C(=O)OCC)N1CS(=O)c2c(C)cc([N+](=O)[O-])cc21` (stereo not drawn), for which the melting point was 97 °C.

`N#Cc1ccc(C2=NOC3(CCN(C(=O)CCC(=O)O)CC3)C2)cc1`: the melting point lay in the range of 167 to 170 °C.

`O=C(NC(=O)c1cccnc1)NC1CCN(Cc2ccc3ncccc3c2)CC1`: the melting point was 196 to 198 °C.

In the case of `O=c1n(-c2cccc3ccccc23)c(=O)n(CCO)n1CCO`, the melting point was in the range of 211 to 212 °C.

`O=C(NCc1ccc(Cl)cc1)c1cnc2cc(CCCO)ccc2c1O` yielded a melting point of 166 to 168 °C.

On to `NC(=O)N1C(=O)Cc2ccccc21`, for which the melting point was in the range of 179 to 180 °C.

Turning to `CCOC(=O)c1ccc([C@H]2CC[C@H](NCc3ccccc3)CC2)cc1`, the melting point is 74 to 76 °C.

Consider `O=S1(=O)NCN(CCF)c2cc(Cl)cc(Cl)c21`, for which the melting point fell in the range of 180 to 184 °C.

In turn, `CC(C)(N)[C@H]1CCN(c2c(F)cc3c(=O)c(C(=O)O)cn(C4CC4)c3c2F)C1` registered a melting point of 261 to 264 °C.

In turn, `CC(C)c1cccc(S(=O)(=O)n2c(Cc3ccc(C(=O)O)cc3)cc3cc(Cl)ccc32)c1` yielded a melting point of 181 °C.

In the case of `CC[C@H](COC)n1cc(Cl)nc(N2CCc3cc(Cl)cc(Cl)c32)c1=O`, the melting point was in the range of 143 to 146 °C.

Consider `CNc1nc(Cl)nc2cc(OC)c(OC)cc12`, for which the melting point lay within 216 to 217 °C.

`CCOC(=O)C(Cc1ccc2ccccc2c1Br)C(=O)OCC` gave a melting point of 60 to 65 °C.

Regarding `CCCC(C(=O)N(C)C)n1cc(C)c(-c2ccccc2)n1` (stereo not drawn), the melting point is 84 to 86 °C.

`COC(=O)CCCCCCCCCCCCCCCCCCCCCOS(=O)(=O)c1ccc(C)cc1` returned a melting point of 74 to 76 °C.

In turn, `O=c1[nH]c2cc(Cl)cc(Cl)c2c(=O)n1Cc1cccc(F)c1` showed a melting point of 267 to 270 °C.

The compound `CCCCCCCCCCOC(=O)C1=C(C)NC(N)=C(C(=O)OCC)C1c1cccc([N+](=O)[O-])c1` (stereo not drawn) came in with a melting point of 190 to 191 °C.

With `O=C1C(c2ccccc2)=C(c2ccccc2)C(=O)N1c1ccc(Cl)cc1`, the melting point was 198 to 199 °C.

For `CC(C)(C(=O)c1ccc(SCCCCCCS)cc1)N1CCOCC1`, the melting point is 61 to 64 °C.

The compound `CSCc1cc([N+](=O)[O-])ccc1N` gave a melting point of 72 to 77 °C.

For the origin of these results see a melting point compilation (Tetko et al.; mined from patent text by program, amines drawn as free bases though some values may be those of a salt).
